Measured values taken from patent publication EP4696688A1, “BENZO-FUSED RING COMPOUND INHIBITOR, AND PREPARATION METHOD THEREFOR AND USE THEREOF” (Shanghai Hansoh Biomedical Co., Ltd., priority 2023, dated 2024).

Assays:
human CYP11B2 = target: T1, human CYP11B2 (Homo sapiens, UniProt P19099); test: G-402 cell enzyme experiment, CYP11B2 (aldosterone product, HTRF); assay type: cell-based; details: G-402 cells stably expressing human CYP11B2, 1 µM 11-deoxycorticosterone, 16 h
T1 construct: The main elements of an expression plasmid include ORF of human CYP11B1 or human CYP11B2; expressed in transfected cells
T1 sequence (P19099 25-503): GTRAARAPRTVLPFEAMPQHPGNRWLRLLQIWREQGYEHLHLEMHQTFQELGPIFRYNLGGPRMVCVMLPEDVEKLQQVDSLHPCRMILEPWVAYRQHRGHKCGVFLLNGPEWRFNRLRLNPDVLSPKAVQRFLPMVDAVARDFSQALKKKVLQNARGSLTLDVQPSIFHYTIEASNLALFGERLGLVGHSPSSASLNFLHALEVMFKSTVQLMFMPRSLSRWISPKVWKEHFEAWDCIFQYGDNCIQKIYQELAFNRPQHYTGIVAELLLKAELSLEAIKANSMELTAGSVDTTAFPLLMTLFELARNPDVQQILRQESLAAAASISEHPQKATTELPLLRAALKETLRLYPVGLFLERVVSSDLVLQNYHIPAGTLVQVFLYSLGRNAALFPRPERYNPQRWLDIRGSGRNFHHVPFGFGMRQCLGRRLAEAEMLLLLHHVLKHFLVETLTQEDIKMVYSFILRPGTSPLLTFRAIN
Text: (§1) G-402 cell line was used as host cells to express (by transient or stable transfection) an enzyme of the human CYP11 family. Specifically, G-402 cell lines stably expressing human CYP11B1 and human CYP11B2 were established respectively. […] Therefore, the G-402 cell line is very suitable as a host cell for the ectopic expression of an enzyme of the CYP11 family.
(§2) The G-402 cell line, originally derived from renal myoblastoma, can be obtained from ATCC (CRL-1440). The main elements of an expression plasmid include ORF of human CYP11B1 or human CYP11B2, a suitable promoter (CMV promoter), and a suitable resistance marker (neomycin). The expression plasmid was transfected into G-402 cells by standard technology, and a specific antibiotic was then given for screening. The activity of the enzyme expressed by the screened monoclonal cells was assessed by 11-deoxycorticosterone (substrate of CYP11B2) and 11-deoxycortisol (substrate of CYP11B1).
(§3) The G-402 cells expressing CYP11 plasmid, as established in the above solution, were cultured in McCoy's 5a Modified Medium (ATCC Catalog No. 30-2007) containing 10% FCS and 400 µg/ml G418 in an incubator at 37°C and 5% CO2. A cell enzyme experiment was carried out using DMEM/F12 medium containing 2.5% charcoal-treated FBS and an appropriate concentration of a substrate (1 µM 11-deoxycorticosterone or 1 µM 11-deoxycortisol). In order to detect the activity of the enzyme in the cells, the cells were plated in a 96-well plate and incubated for 16 h. The supernatant was then transferred and analyzed for the concentration of the expected product (the product of CYP11B2: aldosterone; the product of CYP11B1: cortisol). The concentrations of these products were determined by an HTRF experiment of CisBio.
(§4) In the cell enzyme experiment, the inhibitory effect of the test compound on the generated product can reflect the inhibitory effect thereof on the enzyme. The dose-dependent inhibition of the enzyme activity by the compound was calculated by plotting the concentration of the test compound (x axis) versus the measured product level (y axis). Then, the original data was fitted to a 4-parameter sigmoidal function (Morgan-Mercer-Flodin, MMF model) by least square method: y = (AB + Cx^D) / (B + x^D) in which A is the maximum y value, B is the EC50 determined by XLFit, C is the minimum y value, and D is the slope value. The maximum value A corresponds to the amount of the product detected without an inhibitor, and C corresponds to the amount of the product detected in the G402 cells expressing an empty plasmid.
(§5) The EC50 value of the compound of the present invention was determined by the above G-402 experiment system. The activity of the CYP11B2 enzyme was determined under the conditions of 1 µM 11-deoxycorticosterone and a variable amount of the inhibitor, and the activity of the CYP11B1 enzyme was determined under the conditions of 1 µM 11-deoxycortisol and a variable amount of the inhibitor.

human CYP11B1 = target: T2, human CYP11B1 (Homo sapiens, UniProt P15538); test: G-402 cell enzyme experiment, CYP11B1 (cortisol product, HTRF), selectivity versus CYP11B2; assay type: cell-based; details: human selective factor: ratio of CYP11B1 EC50 to CYP11B2 EC50; G-402 cells
T2 construct: The main elements of an expression plasmid include ORF of human CYP11B1 or human CYP11B2; expressed in transfected cells
T2 sequence (P15538 25-503): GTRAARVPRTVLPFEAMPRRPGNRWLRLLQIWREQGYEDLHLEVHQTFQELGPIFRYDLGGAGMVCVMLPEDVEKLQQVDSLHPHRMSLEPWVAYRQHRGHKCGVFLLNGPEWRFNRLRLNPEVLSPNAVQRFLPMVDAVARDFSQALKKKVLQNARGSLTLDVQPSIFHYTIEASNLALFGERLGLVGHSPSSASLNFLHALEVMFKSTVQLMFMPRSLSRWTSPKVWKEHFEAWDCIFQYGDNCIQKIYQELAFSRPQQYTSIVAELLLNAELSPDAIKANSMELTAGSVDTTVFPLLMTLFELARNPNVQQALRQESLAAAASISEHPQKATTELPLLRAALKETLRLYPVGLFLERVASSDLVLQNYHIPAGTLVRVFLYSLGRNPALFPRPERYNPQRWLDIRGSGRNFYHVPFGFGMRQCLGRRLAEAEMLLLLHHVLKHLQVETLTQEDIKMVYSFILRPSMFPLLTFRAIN
Text: as §1, §2, §3, §4, §5

[1] = Pharmacokinetic determination in rats; assay type: in vivo; details: rat, male SD rats, plasma, oral administration (PO) 5 mg/kg; for MRT inf: read-out: MRT0-∞
Procedure: SD rats were used as test animals to study the pharmacokinetic behavior of the compounds of the present invention in rats (plasma) after oral administration.
3 SD rats per group, male.
Formulation of drug for oral administration: 0.5% CMC-Na (1% Tween 80)
5 g of sodium carboxymethyl cellulose (CMC-Na, viscosity: 800-1200 Cps) was weighed and dissolved in 1000 mL of purified water, and 10 g of Tween 80 was added. These materials were uniformly mixed to form a clear solution.
The example compounds were weighed and dissolved in the solution and the mixture was shaken well and ultrasonicated for 15 min to obtain a colorless clear solution with a concentration of 0.5 mg/mL. Formulation of drug for intravenous administration: 5% DMSO + 10% Solutol HS15 + 85% PBS
After overnight fasting, 3 male SD rats per group were administered orally (PO) at a dose of 5 mg/kg with an administration volume of 10 mL/kg. […]
0.2 mL of blood was collected from the jugular vein of the experimental animals before administration and at 0.25 h, 0.5 h, 1.0 h, 2.0 h, 4.0 h, 6.0 h, 8.0 h, and 24.0 h after administration and placed in an EDTA-2K test tube, and the test tube was centrifuged at 8000 rpm for 6 min at 4°C to separate the plasma, which was stored at -80°C; and the animals were fed 4 h after administration.
3 Experimental results: The final determination results were obtained by using LCMS/MS method.

Row | SMILES | EC50 (human CYP11B2) | hsF (human CYP11B1) | AUC(0-inf) [1] | AUC(0-t) [1] | Cmax [1] | Tmax [1] | half-life [1] | MRT inf [1]
1 | [2H]C([2H])([2H])n1cc(C(=O)N2CC3(C2)CN(c2cncc(-c4ccc5nc(OC)ccc5c4)c2)C3)cn1 [Example 78, (6-(5-(2-methoxyquinolin-6-yl)pyridin-3-yl)-2,6-diazaspiro[3.3]heptan-2-yl)(1-(methyl-d3)-1H-pyrazol-4-yl)methanone] | 24 nM | > 8488x | 21600 ng·h/mL | 21600 ng·h/mL | 3210 ng/mL | 4 h | 1.9 h | 4.7 h
2 | COc1ccc2cc(-c3cncc(N4CC5(CN(C(C)=O)C5)C4)c3)ccc2n1 [Example 92, 1-(6-(5-(2-methoxyquinolin-6-yl)pyridin-3-yl)-2,6-diazaspiro[3.3]heptan-2-yl)ethan-1-one] | 11 nM | 1285x | – | – | – | – | – | –
3 | COc1ccc2cc(-c3cncc(N4CC5(CN(C(=O)C6(F)CC6)C5)C4)c3)ccc2n1 [Example 94, (1-fluorocyclopropyl)(6-(5-(2-methoxyquinolin-6-yl)pyridin-3-yl)-2,6-diazaspiro[3.3]heptan-2-yl)methanone] | 13 nM | 350x | – | – | – | – | – | –
4 | COc1ccc2cc(-c3cncc(N4CC5(CN(C(=O)C6(O)CC6)C5)C4)c3)ccc2n1 [Example 97, (1-hydroxycyclopropyl)(6-(5-(2-methoxyquinolin-6-yl)pyridin-3-yl)-2,6-diazaspiro[3.3]heptan-2-yl)methanone] | 11 nM | 971x | – | – | – | – | – | –
5 | COc1ccc2cc(-c3cncc(N4CC5(CN(C(=O)c6ccc(C)nc6)C5)C4)n3)ccc2n1 [Example 100, (6-(6-(2-methoxyquinolin-6-yl)pyrazin-2-yl)-2,6-diazaspiro[3.3]heptan-2-yl)(6-methylpyridin-3-yl)methanone] | 9 nM | 1048x | 22500 ng·h/mL | 20100 ng·h/mL | 3950 ng/mL | 2 h | 2 h | 4.1 h
6 | Cc1ccc(C(=O)N2CC3(C2)CN(c2cncc(-c4ccc5c(c4)sc(=O)n5C)c2)C3)cn1 [Example 101, 3-methyl-6-(5-(6-(6-methylnicotinoyl)-2,6-diazaspiro[3.3]heptan-2-yl)pyridin-3-yl)benzo[d]thiazol-2(3H)-one] | 43 nM | > 4651x | – | – | – | – | – | –
7 | COc1ccc2cc(-c3cncc(N4CC5(CC(N6CCc7cc(C)ncc7C6=O)C5)C4)c3)ccc2n1 [Example 108, 2-(2-(5-(2-Methoxyquinolin-6-yl)pyridin-3-yl)-2-azaspiro[3.3]heptan-6-yl)-6-methyl-3,4-dihydro-2,7-diazanaphthalen-1(2H)-one] | 71 nM | > 2817x | – | – | – | – | – | –

Next, values leading:

Row | EC50 (human CYP11B2) | hsF (human CYP11B1) | AUC(0-inf) [1] | AUC(0-t) [1] | Cmax [1] | Tmax [1] | half-life [1] | MRT inf [1] | SMILES
8 | 9 nM | > 22909x | 33600 ng·h/mL | 33600 ng·h/mL | 5720 ng/mL | 2 h | 2.2 h | 3.8 h | COc1ccc2cc(-c3cncc(N4CC5(CN(C(=O)c6cnn(C)c6)C5)C4)c3)ccc2n1 [Example 23, (6-(5-(2-methoxyquinolin-6-yl)pyridin-3-yl)-2,6-diazaspiro[3.3]heptan-2-yl)(1-methyl-1H-pyrazol-4-yl)methanone]
9 | 69 nM | 170x | 22400 ng·h/mL | 21800 ng·h/mL | 4900 ng/mL | 2 h | 1.3 h | 3.1 h | CCC(=O)N[C@@H]1CCCc2c(-c3ccc4c(cnn4C)c3)cncc21 [Example 60, (R)-N-(4-(1-methyl-1H-indazol-5-yl)-5,6,7,8-tetrahydroisoquinolin-8-yl)propanamide]
10 | 12 nM | 3999x | 16700 ng·h/mL | 16700 ng·h/mL | 3160 ng/mL | 4 h | 2.8 h | 4.5 h | COc1ccc2cc(-c3cncc(N4CC5(CN(C(=O)c6cnn(C)c6)C5)C4)n3)ccc2n1 [Example 79, (6-(6-(2-Methoxyquinolin-6-yl)pyrazin-2-yl)-2,6-diazaspiro[3.3]heptan-2-yl)(1-methyl-1H-pyrazol-4-yl)methanone]
11 | 12 nM | 2278x | 18200 ng·h/mL | 18200 ng·h/mL | 2560 ng/mL | 1 h | 2.2 h | 4.2 h | Cn1cc(C(=O)N2CC(Oc3cncc(-c4ccc5c(c4)sc(=O)n5C)c3)C2)cn1 [Example 91, 3-methyl-6-(5-((1-(1-methyl-1H-pyrazole-4-carbonyl)azetidin-3-yl)oxy)pyridin-3-yl)benzo[d]thiazol-2(3H)-one]
12 | 48 nM | 229x | – | – | – | – | – | – | COc1ccc2cc(-c3cncc(N4CC5(CN(C(C)=O)C5)C4)n3)ccc2n1 [Example 93, 1-(6-(6-(2-methoxyquinolin-6-yl)pyrazin-2-yl)-2,6-diazaspiro[3.3]heptan-2-yl)ethan-1-one]
13 | 104 nM | > 1923x | – | – | – | – | – | – | Cn1cc(C(=O)N2CC3(C2)CN(c2cncc(-c4ccc5c(c4)sc(=O)n5C)n2)C3)cn1 [Example 107, 3-methyl-6-(6-(6-(1-methyl-1H-pyrazole-4-carbonyl)-2,6-diazaspiro[3.3]heptan-2-yl)pyrazin-2-yl)benzo[d]thiazol-2(3H)-one]
14 | 6 nM | 159x | – | – | – | – | – | – | COc1ccc2cc(-c3cncc(N4CCC(NC(=O)c5cnn(C)c5)CC4)n3)ccc2n1 [Example 109, N-(1-(6-(2-methoxyquinolin-6-yl)pyrazin-2-yl)piperidin-4-yl)-1-methyl-1H-pyrazole-4-carboxamide]
